Measured values as given in patent publication US20180311276A1, “Method and Apparatus for Treating Oral Disease in Animals” (priority 2015, published 2018).

Tests used:
thyroid level (T4) = thyroid level (T4) in the Example 1 clinical trial; format: in vivo, dogs; conditions: 0.5 or 1.0 microgram/mL in drinking water, 28 days
From the text: Each dog was weighed, blood drawn for determination of thyroid level and a qualitative assessment was made for halitosis using a 0, 1, 2, 3, 4 and 5 scale with 0 indicating no discernible “doggie breath produced by hydrogen sulfide H2S” and 5 being very noxious, strong odor. Dogs were anesthetized, marginal tooth-gum line measurements were taken for proscribed teeth (required for veterinary oral health counsel certification of efficacy at reducing plaque in dogs found at www.VOHC.com) and dog teeth were cleaned to remove all plaque and tarter. All dogs were given either drug or placebo each morning for 28 days. Journal entries were kept for each dog to monitor for compliance, observations regarding dog drinking behavior and comments regarding dog breath/odor. Once each dog drank all the water i.e., 1000 mL the water bowl was filled with fresh water. […] At the end of the study i.e., 28 days each dog was sedated, breath was evaluated and teeth were stained with disclosing solution that is proven to stain plaque red. The attending veterinarian who measured the initial marginal tooth-gum line measured all the proscribed teeth using the published technique (Scherl D S, Coffman L, et al. Validation of a New Dental Plaque Quantification Method in Dogs. J Vet Dent 24(1); 14-20, 2007). All values from all 20 dogs were recorded and whole mouth scores were calculated.

[1] = test system: oral bacteria responsible for plaque formation; assay: kill of oral bacteria responsible for plaque formation; format: cell-based; conditions: 2 micrograms/mL
From the text: (§1) The inventor evaluated a variety elemental iodine concentrations e.g., 0.5, 1.0, 2.0, 3, 5, 10, 15 and 20 micrograms/mL and discovered that dogs preferred drinking water with elemental iodine below 2 micrograms/mL. We evaluated the ability of elemental iodine to kill oral bacteria at a concentration of 2 micrograms/mL responsible for plaque formation and discovered that elemental iodine was effective at this dose i.e., microbial kill >3 logs/min. We evaluated lower concentrations of elemental iodine e.g., 0.05, 0.1 and 0.5 micrograms/mL. […] We hypothesized that molecular iodine concentrations below 0.5 micrograms/mL may not be not effective in killing oral bacteria responsible for plaque formation. We confirmed this assumption by performing microbial analysis. The inventor sent samples of two part preparations e.g., 1 vial with water and a second vial with iodine in 100% ethyl alcohol. These were combined before analysis so that the final concentrations were 0.05, 0.1, 0.5, 1.0, 2.0 and 5.0 micrograms/mL. The test organism was a known plaque-producing bacterium i.e., Neisseria spp. A contract research laboratory in Texas i.e., MicroChem Laboratories performed the use dilution experiments.

thyroid hormone levels = thyroid hormone levels in the two shelter clinical trials; format: in vivo, dogs; conditions: iodine added to dog drinking water
Procedure: (§2) Plaque formation leads to gingivitis and periodontal disease and often progresses to systemic disease and death in dogs. Clinical trial 1 was conducted at a humane shelter with all dogs enclosed in kennels using a manually added drug vs. placebo. Subsequently, Clinical Trial 2 was conducted at a humane shelter with all dogs enclosed in kennels but in this case the iodine vs placebo was administered via an automated system.
Furthermore, neither dog weight or age affected the plaque prevention effect. Finally, the iodine added to dog drinking water had no effect on dog thyroid hormone levels.

plaque = assay: double-blind, placebo controlled clinical trial in 20 adult dogs, whole mouth plaque scores (Example 1); format: in vivo; conditions: 28 days
Procedure: First, a double-blind, placebo controlled clinical trial was conducted using 20 adult dogs of mixed breed and weights. The dogs were randomly divided into two groups. […] Group 1 dogs were further divided into two groups of five dogs. Five received molecular iodine [I2] dissolved into 1000 mL water to a final concentration of 0.5 microgram/mL. The second group of five dogs received molecular iodine [I2] dissolved into 1000 mL water to a final concentration of 1.0 microgram/mL. The placebo group of 10 dogs received no iodine. […]
Each dog was weighed, blood drawn for determination of thyroid level and a qualitative assessment was made for halitosis using a 0, 1, 2, 3, 4 and 5 scale with 0 indicating no discernible “doggie breath produced by hydrogen sulfide H2S” and 5 being very noxious, strong odor. […] At the end of the study i.e., 28 days each dog was sedated, breath was evaluated and teeth were stained with disclosing solution that is proven to stain plaque red. The attending veterinarian who measured the initial marginal tooth-gum line measured all the proscribed teeth using the published technique (Scherl D S, Coffman L, et al. Validation of a New Dental Plaque Quantification Method in Dogs. J Vet Dent 24(1); 14-20, 2007). All values from all 20 dogs were recorded and whole mouth scores were calculated.

[2] = saturation of absolute alcohol with molecular iodine; format: physicochemical
From the text: One embodiment of the present invention features a carrier liquid ethanol. The ethanol is preferably devoid of water, as in absolute alcohol. As used herein, the term “absolute alcohol” refers to alcohol with no or limited water content as such term is used in a commercial context. One formulation molecular iodine having a concentration in absolute alcohol in the range of 0.1 to 1.0 Gm molecular iodine in 13 milliliters of absolute alcohol. Molecular iodine saturates absolute alcohol at a concentration of 1 Gm per 13 milliliters of absolute alcohol. A further embodiment of the present formulation features a molecular sieve particle of between 2 and 4 A which captures and adsorbs water.

Neisseria spp. = assay: use dilution experiments (MicroChem Laboratories); format: cell-based; conditions: for reduction in microbial concentration / kill: 1 minute time point
From the text: as §1

[3] = test system: halitosis (volatile sulfur compounds, hydrogen sulfide); assay: halitosis secondary end point: Halimeter VSC readings and qualitative odor 0-5 scale (Example 1); format: in vivo, dogs
From the text: Each dog was weighed, blood drawn for determination of thyroid level and a qualitative assessment was made for halitosis using a 0, 1, 2, 3, 4 and 5 scale with 0 indicating no discernible “doggie breath produced by hydrogen sulfide H2S” and 5 being very noxious, strong odor. Dogs were anesthetized, marginal tooth-gum line measurements were taken for proscribed teeth (required for veterinary oral health counsel certification of efficacy at reducing plaque in dogs found at www.VOHC.com) and dog teeth were cleaned to remove all plaque and tarter. All dogs were given either drug or placebo each morning for 28 days. Journal entries were kept for each dog to monitor for compliance, observations regarding dog drinking behavior and comments regarding dog breath/odor. Once each dog drank all the water i.e., 1000 mL the water bowl was filled with fresh water. The following day all the remaining water was discarded and the clinical trial sample was added to the water bowl. At the end of the study i.e., 28 days each dog was sedated, breath was evaluated and teeth were stained with disclosing solution that is proven to stain plaque red. The attending veterinarian who measured the initial marginal tooth-gum line measured all the proscribed teeth using the published technique (Scherl D S, Coffman L, et al. Validation of a New Dental Plaque Quantification Method in Dogs. J Vet Dent 24(1); 14-20, 2007). All values from all 20 dogs were recorded and whole mouth scores were calculated.
The halitosis secondary end point was more complicated since the attempt was made to use an Interscan Corporation Halimeter® that quantitatively measures volatile sulfur compounds (VSC) in the oral cavity. The Halimeter was designed for use by dentists and humans. One of the requirements to obtain reliable readings is for the conscious human subject to blow into a straw connected into the Halimeter. The problem encountered with dogs while under anesthesia is obtaining a valid reading since they are unable to “blow” into the straw. Early dog readings were erratic and turned out to be unreliable. […]

[4] = test system: plaque formation on teeth; assay: two double-blind, placebo-controlled clinical trials at a humane shelter, plaque prevention; format: in vivo, dogs
Procedure: as §2
We conducted two double-blind, placebo-controlled clinical trials using both 0.5 and 1.0 micrograms elemental iodine in water.

SMILES: II [molecular iodine]
- T4 levels after treatment (thyroid level (T4)): remained within normal range
- microbial kill [1]: > 3 logs/min
- effect on dog thyroid hormone levels (thyroid hormone levels): no effect
- whole mouth plaque scores from Day 0 to Day 28, Treated dogs compared to Placebo dogs (plaque; 0.5 or 1.0 microgram/mL in 1000 mL drinking water, once daily): statistically significant reduction
- mean plaque score, dogs receiving 0.5 microgram/mL versus 1.0 micrograms/mL (plaque; drinking water): no difference
- concentration at which molecular iodine saturates absolute alcohol [2]: 1 Gm per 13 milliliters of absolute alcohol
- antimicrobial efficacy (Neisseria spp.; 0.05 micrograms/mL): no antimicrobial efficacy
- antimicrobial efficacy (Neisseria spp.; 0.1 micrograms/mL): no antimicrobial efficacy
- reduction in microbial concentration (Neisseria spp.; 0.5 microgram/mL): 100 fold
- reduction in microbial concentration (Neisseria spp.; 1.0 microgram/mL): 1000 fold
- kill (Neisseria spp.; 2.0 microgram/mL): > 4 logs
- kill (Neisseria spp.; 5.0 microgram/mL): > 4 logs
- killing oral bacteria (Neisseria spp.; concentrations below 0.5 micrograms/mL, independent use dilution experiments): not effective
- Halimeter VSC levels at the conclusion of the clinical trial ([3]; 0-5 scale, 3 dogs of the iodine group, initial levels 4-5, not statistically significant): 0-1
- qualitative odor, final ([3]; 0-5 scale, 5 iodine-treated dogs, initial smell 3-5): 0-1
- number of iodine-treated dogs with reduced oral smell or doggie breath or VSC/H2S ([3]; of 10 iodine-treated dogs, 28 days): 8
- plaque prevention ([4]; both 0.5 and 1.0 micrograms/mL water): proven effective
- prevention of plaque formation, 0.5 versus 1.0 micrograms/mL ([4]; dog drinking water, all dogs regardless of size or age): statistically significantly identical
